The test deals with T1, recombinant human NAE enzyme (Homo sapiens, UniProt Q8TBC4).
T1 construct: His (N); made in house; host or cells: Sf9 insect cells (baculovirus, Bac-to-Bac), purified on Ni-NTA
T1 sequence (Q8TBC4 1-463): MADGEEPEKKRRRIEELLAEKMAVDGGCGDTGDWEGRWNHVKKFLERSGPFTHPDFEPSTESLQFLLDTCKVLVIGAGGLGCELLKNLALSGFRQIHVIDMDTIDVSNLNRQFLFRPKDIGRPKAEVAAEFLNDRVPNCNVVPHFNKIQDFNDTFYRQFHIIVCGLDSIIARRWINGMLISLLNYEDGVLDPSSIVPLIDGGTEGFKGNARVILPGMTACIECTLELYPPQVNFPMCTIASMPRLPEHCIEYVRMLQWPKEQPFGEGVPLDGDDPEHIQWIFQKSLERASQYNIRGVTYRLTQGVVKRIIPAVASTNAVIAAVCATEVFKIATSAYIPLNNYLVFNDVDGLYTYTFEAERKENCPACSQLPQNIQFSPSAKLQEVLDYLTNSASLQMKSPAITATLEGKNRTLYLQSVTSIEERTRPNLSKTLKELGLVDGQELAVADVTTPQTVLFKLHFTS
T1 sequence (Q13564 1-534 partner): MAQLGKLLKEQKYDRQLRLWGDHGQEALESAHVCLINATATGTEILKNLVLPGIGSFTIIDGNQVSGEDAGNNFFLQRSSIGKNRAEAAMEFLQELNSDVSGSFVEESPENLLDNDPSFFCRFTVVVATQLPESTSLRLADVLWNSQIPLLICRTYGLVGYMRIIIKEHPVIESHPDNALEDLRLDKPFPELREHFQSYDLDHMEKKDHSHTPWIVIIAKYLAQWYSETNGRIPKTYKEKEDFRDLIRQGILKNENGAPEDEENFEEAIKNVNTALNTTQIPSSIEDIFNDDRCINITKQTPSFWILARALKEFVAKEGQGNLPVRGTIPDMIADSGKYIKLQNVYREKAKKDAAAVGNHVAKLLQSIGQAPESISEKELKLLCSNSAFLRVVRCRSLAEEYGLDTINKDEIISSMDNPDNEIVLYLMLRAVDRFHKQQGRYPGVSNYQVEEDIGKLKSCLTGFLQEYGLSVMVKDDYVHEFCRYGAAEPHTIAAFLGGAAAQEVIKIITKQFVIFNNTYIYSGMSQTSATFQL
As to the kind of experiment: Nedd8-Activating Enzyme (NAE) HTRF Assay. It is filed as biochemical. The following applies: threshold statement: less than or equal to 100 nM; 20 μM ATP, 90 minutes at 24° C. The method, then: Following manufacturer instructions, baculoviruses were generated with the Bac-to-Bac Expression System (Invitrogen) for the following proteins: untagged NAEα (APPBP1; NP_003896.1), N-terminally His-tagged NAEβ (UBE1C; NP_003959.3), untagged SAEα (SAE1; NP_005491.1), N-terminally His-tagged SAEβ (UBA2; NP_005490.1), N-terminally His-tagged murine UAE (UBE1X; NP_033483). NAEα/His-NAEβ and SAEα/His-SAEβ complexes were generated by co-infection of Sf9 cells, which were harvested after 48 hours. His-mUAE was generated by single infection of Sf9 cells and harvested after 72 hours. Expressed proteins were purified by affinity chromatography (Ni—NTA agarose, Qiagen) using standard buffers. Ubc12 (UBE2M; NP_003960.1), Ubc9 (UBE2I; NP_003336.1), Ubc2 (UBE2A; NP_003327.2) were subcloned into pGEX (Pharmacia) and expressed as N-terminally GST tagged fusion proteins in E. coli. Expressed proteins were purified by conventional affinity chromatography using standard buffers. Nedd8 (NP_006147), Sumo-1 (NP_003343) and Ubiquitin (with optimized codons) were subcloned into pFLAG-2 (Sigma) and expressed as N-terminally Flag tagged fusion proteins in E. coli. Expressed proteins were purified by conventional chromatography using standard buffers. Nedd8-Activating Enzyme (NAE) HTRF Assay. The NAE enzymatic reaction totaled 50 μL and contained 50 mM HEPES (pH 7.5), 0.05% BSA, 5 mM MgCl2, 20 μM ATP, 250 μM GSH, 0.01 μM Ubc12-GST, 0.075 μM Nedd8-Flag and 0.28 nM recombinant human NAE enzyme. The enzymatic reaction mixture, with and without compound inhibitor, was incubated at 24° C. for 90 minutes in a 384-well plate before termination with 25 μL of Stop/Detection buffer (0.1M HEPES pH 7.5, 0.05% Tween20, 20 mM EDTA, 410 mM KF, 0.53 nM Europium-Cryptate labeled monoclonal anti-FLAG M2 antibody (CisBio International) and 8.125 μg/mL PHYCOLINK goat anti-GST allophycocyanin (XL-APC) antibody (Prozyme)). After incubation for 3 hours at 24° C., quantification of the FRET was performed on the Analyst™ HT 96.384 (Molecular Devices).
Background: Time-resolved FRET reads energy transfer from a long-lived donor to a nearby acceptor.

pIC50: −log10 of the molar value.

The record followed here is patent publication US8207177B2, “Inhibitors of E1 activating enzymes” (Millennium Pharmaceuticals, Inc., priority 2006, dated 2012).

The pIC50 is the IC50 on a negative log10 scale, so that one unit is a factor of ten. Turning to `NS(=O)(=O)OC[C@@H]1C[C@@H](n2ccc3c(N[C@H]4CCc5c(F)ccc(F)c54)ncnc32)C[C@@H]1O` [Compound I-62, [(1S,2S,4R)-4-(4-{[(1S)-4,7-difluoro-2,3-dihydro-1H-inden-1-yl]amino}-7H-pyrrolo[2,3-d]pyrimidin-7-yl)-2-hydroxycyclopentyl]methyl sulfamate], the pIC50 is at least 7.00. As for `Cc1cc(CNc2ncnc3c2ccn3[C@@H]2C[C@@H](COS(N)(=O)=O)[C@@H](O)C2)no1` [Compound I-41, [(1S,2S,4R)-2-hydroxy-4-(4-{[(5-methylisoxazol-3-yl)methyl]amino}-7H-pyrrolo-[2,3-d]pyrimidin-7-yl)cyclopentyl]methyl sulfamate], the negative logarithm of the IC50 (pIC50) is at least 7.00.

In the case of `NS(=O)(=O)OC[C@@H]1C[C@@H](n2cnc3c(NCc4ccc(Cl)cc4)ncnc32)C[C@@H]1O` [Compound I-23, ((1S,2S,4R)-4-{6-[(4-chlorobenzyl)amino]-9H-purin-9-yl}-2-hydroxycyclopentyl)methyl sulfamate], the pIC50 is at least 7.00. For the compound `NS(=O)(=O)OC[C@@H]1C[C@@H](n2ccc3c(NCc4ccccc4)ncnc32)C[C@@H]1O` [Compound I-49, {(1S,2S,4R)-4-[4-(benzylamino)-7H-pyrrolo[2,3-d]pyrimidin-7-yl]-2-hydroxycyclopentyl}methyl sulfamate], the pIC50 is at least 7.00. Next, `NS(=O)(=O)OC[C@@H]1C[C@@H](n2ccc3c(N[C@H]4CCOc5ccccc54)ncnc32)C[C@@H]1O` [Compound I-12, ((1S,2S,4R)-4-{4-[(4S)-3,4-dihydro-2H-chromen-4-ylamino]-7H-pyrrolo[2,3-d]-pyrimidin-7-yl}-2-hydroxycyclopentyl)methyl sulfamate]: at least 7.00; `NS(=O)(=O)OC[C@@H]1C[C@@H](n2ccc3c(NCc4ccccc4OC(F)F)ncnc32)C[C@@H]1O` [Compound I-2, [(1S,2S,4R)-4-(4-{[2-(difluoromethoxy)benzyl]amino}-7H-pyrrolo[2,3-d]-pyrimidin-7-yl)-2-hydroxycyclopentyl]methyl sulfamate]: at least 7.00; `CCO[C@H]1Cc2ccccc2[C@H]1Nc1ncnc2c1ccn2[C@@H]1C[C@@H](COS(N)(=O)=O)[C@@H](O)C1` [Compound I-70, [(1S,2S,4R)-4-(4-{[(1R,2S)-2-ethoxy-2,3-dihydro-1H-inden-1-yl]amino}-7H-pyrrolo[2,3-d]pyrimidin-7-yl)-2-hydroxycyclopentyl]methyl sulfamate]: at least 7.00. Take `NS(=O)(=O)OC[C@@H]1C[C@@H](n2ccc3c(CCc4ccccc4)ncnc32)C[C@@H]1O` [Compound I-28, {(1S,2S,4R)-2-hydroxy-4-[4-(2-phenylethyl)-7H-pyrrolo[2,3-d]pyrimidin-7-yl]-cyclopentyl}methyl sulfamate]: the pIC50 is at least 7.00. The same measure for `NS(=O)(=O)OC[C@@H]1C[C@@H](n2ccc3c(NCc4cccc5ccccc45)ncnc32)C[C@@H]1O` [Compound I-38, ((1S,2S,4R)-2-hydroxy-4-{4-[(1-naphthylmethyl)amino]-7H-pyrrolo[2,3-d]-pyrimidin-7-yl}cyclopentyl)methyl sulfamate]: at least 7.00.

Take `CC1(C)C[C@H](Nc2ncnc3c2ccn3[C@@H]2C[C@@H](COS(N)(=O)=O)[C@@H](O)C2)c2ccccc21` (single isomer, unassigned) [Compound I-14]: the pIC50 is at least 7.00.

As for `NS(=O)(=O)OC[C@@H]1C[C@@H](n2ccc3c(N[C@H]4CCc5c(Cl)cccc54)ncnc32)C[C@@H]1O` [Compound I-64, [(1S,2S,4R)-4-(4-{[(1S)-4-chloro-2,3-dihydro-1H-inden-1-yl]amino}-7H-pyrrolo[2,3-d]pyrimidin-7-yl)-2-hydroxycyclopentyl]methyl sulfamate], the pIC50 was at least 7.00. Next, `CC(C)(Cc1ncnc2c1ccn2[C@@H]1C[C@@H](COS(N)(=O)=O)[C@@H](O)C1)c1ccccc1` [Compound I-50, {(1S,2S,4R)-2-hydroxy-4-[4-(2-methyl-2-phenylpropyl)-7H-pyrrolo[2,3-d]-pyrimidin-7-yl]cyclopentyl}methyl sulfamate]: at least 7.00; `NS(=O)(=O)OC[C@@H]1C[C@@H](n2ccc3c(N[C@@H]4c5ccccc5C[C@@H]4O)ncnc32)C[C@@H]1O` [Compound I-71, [(1S,2S,4R)-2-hydroxy-4-(4-{[(1R,2S)-2-hydroxy-2,3-dihydro-1H-inden-1-yl]amino}-7H-pyrrolo[2,3-d]pyrimidin-7-yl)cyclopentyl]methyl sulfamate]: at least 7.00; `NS(=O)(=O)OC[C@@H]1C[C@@H](n2ccc3c(NCC4CC4)ncnc32)C[C@@H]1O` [Compound I-25, ((1S,2S,4R)-4-{4-[(cyclopropylmethyl)amino]-7H-pyrrolo[2,3-d]pyrimidin-7-yl}-2-hydroxycyclopentyl)methyl sulfamate]: at least 7.00. Next, `NS(=O)(=O)OC[C@@H]1C[C@@H](n2cc(F)c3c(NCc4ccccc4)ncnc32)C[C@@H]1O` [Compound I-31, {(1S,2S,4R)-4-[4-(benzylamino)-5-fluoro-7H-pyrrolo[2,3-d]pyrimidin-7-yl]-2-hydroxycyclopentyl}methyl sulfamate]: at least 7.00; `CO[C@H]1Cc2ccccc2[C@H]1Nc1ncnc2c1c(F)cn2[C@@H]1C[C@@H](COS(N)(=O)=O)[C@@H](O)C1` [Compound I-69, [(1S,2S,4R)-4-(5-fluoro-4-{[(1R,2S)-2-methoxy-2,3-dihydro-1H-inden-1-yl]amino}-7H-pyrrolo[2,3-d]pyrimidin-7-yl)-2-hydroxycyclopentyl]methyl sulfamate]: at least 7.00; `C[C@@H](c1ccccc1)N(C)c1ncnc2c1ccn2[C@@H]1C[C@@H](COS(N)(=O)=O)[C@@H](O)C1` [Compound I-3, [(1S,2S,4R)-2-hydroxy-4-(4-{methyl[(1S)-1-phenylethyl]amino}-7H-pyrrolo-[2,3-d]pyrimidin-7-yl)cyclopentyl]methyl sulfamate]: at least 7.00. The same measure for `C[C@@H](Nc1ncnc2c1ccn2[C@@H]1C[C@@H](COS(N)(=O)=O)[C@@H](O)C1)c1ccccc1` [Compound I-7, [(1S,2S,4R)-2-hydroxy-4-(4-{[(1R)-1-phenylethyl]amino}-7H-pyrrolo[2,3-d]-pyrimidin-7-yl)cyclopentyl]methyl sulfamate]: at least 7.00. As for `NS(=O)(=O)OC[C@@H]1C[C@@H](n2ccc3c(NCc4ccc(C(F)(F)F)cc4)ncnc32)C[C@@H]1O` [Compound I-8, [(1S,2S,4R)-2-hydroxy-4-(4-{[4-(trifluoromethyl)benzyl]amino}-7H-pyrrolo-[2,3-d]pyrimidin-7-yl)cyclopentyl]methyl sulfamate], the pIC50 is at least 7.00. Next, `NS(=O)(=O)OC[C@@H]1C[C@@H](n2ccc3c(NCc4ccc(Cl)cc4C(F)(F)F)ncnc32)C[C@@H]1O` [Compound I-42, [(1S,2S,4R)-4-(4-{[4-chloro-2-(trifluoromethyl)benzyl]amino}-7H-pyrrolo[2,3-d]-pyrimidin-7-yl)-2-hydroxycyclopentyl]methyl sulfamate]: at least 7.00.
